In US7566712B2, “Biaryl piperazinyl-pyridine analogues” (Neurogen Corporation, priority 2003, dated 2009):

Target: T1, human capsaicin receptor (Homo sapiens, UniProt Q8NER1)
T1 construct: pBK-CMV expression construct encoding the full length human capsaicin receptor; expressed in transfected cells
Assay: Calcium mobilization assay, determination of antagonist activity (Example 6)
Format: cell-based
Conditions: Table II
Procedure, shortened: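 HEK293 clonal lines stably expressing full-length human capsaicin receptor, loaded with Fluo-3 AM in KRH buffer pH 7.4, 1–2 h at 37 °C. Compounds (1–5 μM final) preincubated 0.5–6 h at room temperature, then capsaicin at its EC50 added. FLIPR/Fluoroskan calcium signal; IC50 as 50% decrease of capsaicin response.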

[1] = determined as described in Example 6 (calcium mobilization, antagonist activity)
[2] = determined as described in Example 6 (antagonist activity), "*" = 1 micromolar or less

T1 sequence (Q8NER1 whole entry): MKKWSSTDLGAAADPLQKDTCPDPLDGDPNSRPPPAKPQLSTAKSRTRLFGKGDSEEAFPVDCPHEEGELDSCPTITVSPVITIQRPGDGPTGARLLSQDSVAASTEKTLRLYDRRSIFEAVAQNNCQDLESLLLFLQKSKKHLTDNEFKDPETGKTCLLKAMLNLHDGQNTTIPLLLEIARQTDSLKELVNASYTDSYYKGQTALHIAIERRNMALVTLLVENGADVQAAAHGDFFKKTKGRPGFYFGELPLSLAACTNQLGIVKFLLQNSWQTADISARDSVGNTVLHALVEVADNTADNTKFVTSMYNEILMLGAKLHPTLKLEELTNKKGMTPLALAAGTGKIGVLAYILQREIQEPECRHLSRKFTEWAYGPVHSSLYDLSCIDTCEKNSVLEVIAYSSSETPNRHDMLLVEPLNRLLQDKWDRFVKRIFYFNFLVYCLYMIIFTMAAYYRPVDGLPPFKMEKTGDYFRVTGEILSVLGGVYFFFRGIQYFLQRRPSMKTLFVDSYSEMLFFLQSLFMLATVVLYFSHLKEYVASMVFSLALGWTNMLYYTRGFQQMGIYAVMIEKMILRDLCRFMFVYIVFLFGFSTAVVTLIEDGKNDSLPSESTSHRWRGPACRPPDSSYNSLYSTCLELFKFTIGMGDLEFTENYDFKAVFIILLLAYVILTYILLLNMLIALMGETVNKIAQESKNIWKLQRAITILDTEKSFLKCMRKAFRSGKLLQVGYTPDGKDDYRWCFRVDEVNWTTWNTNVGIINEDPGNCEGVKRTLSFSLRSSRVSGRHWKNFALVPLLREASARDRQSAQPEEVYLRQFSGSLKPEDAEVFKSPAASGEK

| IC50 [1] [nM] | IC50 [2] [nM] | SMILES |
| --- | --- | --- |
| ≤ 1000 |  | CC1CCN1c1nc(-c2ccc(F)c(Cl)c2)cc(N2CCN(c3ncccc3C(F)(F)F)CC2)n1 (stereo not drawn) [Example 746, 4-(3-ohloro-4-fluorophenyl)-2-(2-methylazetidin-1-yl)-6-{4-[3-(trifluoromethyl)pyridin-2-yl]piperazin-1-yl}pyrimidine] |
| ≤ 1000 |  | O=C1CCN1c1nc(-c2ccc(F)c(Cl)c2)cc(N2CCN(c3ncccc3C(F)(F)F)CC2)n1 [Example 747, 1-(4-(3-chloro-4-fluorophenyl)-6-{4-(3-(trifluoromethyl)pyridin-2-yl]piperazin-1-yl}pyrimidin-2-yl)azetidin-2-one] |
| ≤ 1000 |  | OCCN1CCN(c2nc(-c3ccc(F)c(Cl)c3)cc(N3CCN(c4ncccc4C(F)(F)F)CC3)n2)CC1 [Example 750, 2-[4-(4-(3-chloro-4-fluorophenyl)-6-{4-[3-(trifluoromethyl)pyridin-2-yl]piperazin-1-yl}pyrimidin-2-yl)piperazin-1-yl]ethanol] |
| ≤ 1000 |  | Cc1cc(-c2cc(N3CCN(c4ncccc4C(F)(F)F)CC3)nc(N3CCC3C)n2)ccc1F (stereo not drawn) [Example 756, 4-(4-fluoro-3-methylphenyl)-2-(2-methylazetidin-1-yl)-6-{4-[3-(trifluoromethyl)pyridin-2-yl]piperazin-1-yl}pyrimidine] |
| ≤ 1000 |  | CC(CO)N(C)c1nc(-c2ccc(F)c(Cl)c2)cc(N2CCN(c3ncccc3C(F)(F)F)CC2)n1 (stereo not drawn) [Example 758, 2-[(4-(3-chloro-4-fluorophenyl)-6-{4-[3-(trifluoromethyl)pyridin-2-yl]piperazin-1-yl}pyrimidin-2-yl)(methyl)amino]propan-1-ol] |
| ≤ 1000 |  | C[C@@H]1CN(c2ncccc2C(F)(F)F)CCN1c1cc(-c2ccc(F)c(Cl)c2)nc(N2CCCC2)n1 [Example 763, 4-(3-chloro-4-fluorophenyl)-6-{(2R)-2-methyl-4-[3-(trifluoromethyl)pyridin-2-yl]piperazin-1-yl}-2-pyrrolidin-1-ylpyrimidine] |
| ≤ 1000 |  | C[C@@H]1CN(c2ncccc2C(F)(F)F)CCN1c1cc(-c2ccc(F)c(Cl)c2)nc(N2CCCCC2)n1 [Example 765, 4-(3-chloro-4-fluorophenyl)-6-{(2R)-2-methyt-4-[3-(trifluoromethyl)pyridin-2-yl]piperazin-1-yl}-2-piperidin-1-ylpyrimidine] |
|  | ≤ 1000 | O[C@H]1CCN(c2nc(-c3ccc(F)c(Cl)c3)cc(N3CCN(c4ncccc4C(F)(F)F)CC3)n2)C1 [Example 772, (3S)-1-(4-(3-chloro-4-fluorophenyl)-6-{4-[3-(trifluoromethyl)pyridin-2-yl]piperazin-1-yl}pyrimidin-2-yl)pyrrolidin-3-oI] |
|  | ≤ 1000 | OC1CN(c2nc(-c3ccc(F)c(Cl)c3)cc(N3CCN(c4ncccc4C(F)(F)F)CC3)n2)C1 [Example 774, 1-(4-(3-chloro-4-fluorophenyl)-6-{4-[3-(trifluoromethyl)pyridin-2-yl]piperazin-1-yl}pyrimidin-2-yl)azetidin-3-ol] |
|  | ≤ 1000 | Fc1ccc(-c2cc(N3CCN(c4ncccc4C(F)(F)F)CC3)nc(N3C[C@H]4C[C@@H]3CN4)n2)cc1Cl [Example 775, (1R,4R)-2-(4-(3-chloro-4-fluorophenyl)-6-{4-[3-(trifluoromethyl)pyridin-2-yl]piperazin-1-yl}pyrimidin-2-yl)-2,5-diazabicyclo[2.2.1]heptane] |
|  | ≤ 1000 | COC1CN(c2nc(-c3ccc(F)c(Cl)c3)cc(N3CCN(c4ncccc4C(F)(F)F)CC3)n2)C1 [Example 776, 4-(3-chloro-4-fluorophenyl)-2-(3-methoxyazetidin-1-yl)-6-{4-[3-(trifluoromethyl)pyridin-2-yl]piperazin-1-yl}pyrimidine] |

Further lines, the compound ahead of its results:

| SMILES | IC50 [1] [nM] | IC50 [2] [nM] |
| --- | --- | --- |
| CC1CCCN1c1nc(-c2ccc(F)c(F)c2)cc(N2CCN(c3ncccc3F)CC2)n1 (stereo not drawn) [Example 748, 4-(3,4-difluorophenyl)-6-[4-(3-fluoropyridin-2-yl)piperazin-1-yl]-2-(2-methylpyrrolidin-1-yl)pyrimidine] | ≤ 1000 |  |
| CC1CCCN1c1nc(-c2ccc(F)cc2)cc(N2CCN(c3ncccc3F)CC2)n1 (stereo not drawn) [Example 749, 4-(4-fluorophenyl)-6-[4-(3-fluoropyridin-2-yl)piperazin-1-yl]-2-(2-methylpyrrolidin-1-yl)pyrimidine] | ≤ 1000 |  |
| CC1CCC(C)N1c1nc(-c2ccc(F)c(Cl)c2)cc(N2CCN(c3ncccc3Cl)CC2)n1 (stereo not drawn) [Example 751, 4-(3-chloro-4-fluorophenyl)-6-[4-(3-chloropyridin-2-yl)piperazin-1-yl]-2-(2,5-dimethylpyrrolidin-1-yl)pyrimidine] | ≤ 1000 |  |
| CC1CCC(C)N1c1nc(-c2ccc(F)c(Cl)c2)cc(N2CCN(c3ncccc3Cl)C[C@H]2C)n1 (stereo partly drawn) [Example 752, 4-(3-chloro-4-fluorophenyl)-6-[(2R)-4-(3-chloropyridin-2-yl)-2-methylpiperazin-1-yl]-2-(2,5-dimethylpyrrolidin-1-yl)pyrimidine] | ≤ 1000 |  |
| Cc1cc(-c2cc(N3CCN(c4ncccc4C(F)(F)F)C[C@H]3C)nc(N3CCCC3)n2)ccc1F [Example 753, 4-(4-fluoro-3-methylphenyl)-6-{(2R)-2-methyl-4-[3-(trifluoromethyl)pyridin-2-yl]piperazin-1-yl}-2-pyrrolidin-1-ylpyrimidine] | ≤ 1000 |  |
| Cc1cc(-c2cc(N3CCN(c4ncccc4C(F)(F)F)C[C@H]3C)nc(N3CCCC3C)n2)ccc1F (stereo partly drawn) [Example 754, 4-(4-fluoro-3-methyiphenyl)-2-(2-methylpyrrolidin-1-yl)-6-{(2R)-2-methyt-4-[3-(trifluoromethyl)pyridin-2-yl]piperazin-1-yl}pyrimidine] | ≤ 1000 |  |
| Cc1cc(-c2cc(N3CCN(c4ncccc4C(F)(F)F)C[C@H]3C)nc(N3C(C)CCC3C)n2)ccc1F (stereo partly drawn) [Example 755, 2-(2,5-dimethylpyrrolidin-1-yl)-4-(4-fluoro-3-methylphenyl)-6-{(2R)-2-methyl-4-[3-(trifluoromethyl)pyridin-2-yl]piperazin-1-yl}pyrimidine] | ≤ 1000 |  |
| CCC(C)N(C)c1nc(-c2ccc(F)c(C)c2)cc(N2CCN(c3ncccc3C(F)(F)F)CC2)n1 (stereo not drawn) [Example 757, N-(sec-butyl)-4-(4-fluoro-3-methylphenyl)-N-methyl-6-{4-[3-(trifluoromethyl)pyridin-2-yl]piperazin-1-yl}pyrimidin-2-amine] | ≤ 1000 |  |
| Cc1cc(-c2cc(N3CCN(c4ncccc4C(F)(F)F)C[C@H]3C)nc(N3CCCCC3)n2)ccc1F [Example 759, 4-(4-fluoro-3-methylphenyl)-6-{(2R)-2-methyl-4-[3-(trifluoromethyl)pyridin-2-yl]piperazin-1-yl}-2-piperidin-1-ylpyrimidine] | ≤ 1000 |  |
| COC[C@@H]1CCCN1c1nc(-c2ccc(F)c(C)c2)cc(N2CCN(c3ncccc3C(F)(F)F)C[C@H]2C)n1 [Example 760, 4-(4-fluoro-3-methylphenyl)-2-[(2S)-2-(methoxymethyl)pyrrolidin-1-yl]-6-{(2R)-2-methyl-4-[3-(trifluoromethyl)pyridin-2-yl]piperazin-1-yl}pyrimidine] | ≤ 1000 |  |
| COC[C@H]1CCCN1c1nc(-c2ccc(F)c(C)c2)cc(N2CCN(c3ncccc3C(F)(F)F)C[C@H]2C)n1 [Example 761, 4-(4-fluoro-3-methylphenyl)-2-[(2R)-2-(methoxymethyl)pyrrolidin-1-yl]-6-{(2R)-2-methyl-4-[3-(trifluoromethyl)pyridin-2-yl]piperazin-1-yl}pyrimidine] | ≤ 1000 |  |
| Cc1cc(-c2cc(N3CCN(c4ncccc4C(F)(F)F)C[C@H]3C)nc(N(C)C(C)C)n2)ccc1F [Example 762, 4-(4-fluoro-3-methylphenyl)-N-isopropyl-N-methyl-6-{(2R)-2-methyl-4-[3-(trifluoromethyl)pyridin-2-yl]piperazin-1-yl}pyrimidin-2-amine] | ≤ 1000 |  |
| CC1CCCN1c1nc(-c2ccc(F)c(Cl)c2)cc(N2CCN(c3ncccc3C(F)(F)F)C[C@H]2C)n1 (stereo partly drawn) [Example 764, 4-(3-chloro-4-fluorophenyl)-2-(2-methylpyrrolidin-1-yl)-6-{(2R)-2-methyl-4-[3-(trifluoromethyl)pyridin-2-yl]piperazin-1-yl}pyrimidine] | ≤ 1000 |  |
| Cc1cc(-c2cc(N3CCN(c4ncccc4C(F)(F)F)CC3)nc(N3CCC3(C)C)n2)ccc1F [Example 766, 2-(2,2-dimethylazetidin-1-yl)-4-(4-fluoro-3-methylphenyl)-6-{4-[3-(trifluoromethyl)pyridin-2-yl]piperazin-1-yl}pyrimidine] | ≤ 1000 |  |
| C[C@@H]1CN(c2ncccc2Cl)CCN1c1cc(-c2ccc(F)c(F)c2)nc(N2CCCC2)n1 [Example 767, 4-[(2R)-4-(3-chloropyridin-2-yl)-2-methylpiperazin-1-yl]-6-(3,4-difluorophenyl)-2-pyrrolidin-1-ylpyrimidine] | ≤ 1000 |  |
| CC1CCCN1c1nc(-c2ccc(F)c(F)c2)cc(N2CCN(c3ncccc3Cl)C[C@H]2C)n1 (stereo partly drawn) [Example 768, 4-[(2R)-4-(3-chloropyridin-2-yl)-2-methylpiperazin-1-yl]-6-(3,4-difluorophenyl)-2-(2-methylpyrrolidin-1-yl)pyrimidine] | ≤ 1000 |  |
| C[C@@H]1CN(c2ncccc2Cl)CCN1c1cc(-c2ccc(F)c(F)c2)nc(N2CCCCC2)n1 [Example 769, 4-{(2R)-4-(3-chloropyridin-2-yl)-2-methylpiperazin-1-yl]-6-(3,4-difluorophenyl)-2-piperidin-1-ylpyrimidine] | ≤ 1000 |  |
| Cc1cc(-c2cc(N3CCN(c4ncccc4C(F)(F)F)C[C@H]3C)nc(N3CCCCC3C)n2)ccc1F (stereo partly drawn) [Example 770, 4-(4-fluoro-3-methylphenyl)-2-(2-methylpiperidin-1-yl)-6-{(2R)-2-methyl-4-[3-(trifluoromethyl)pyridin-2-yl]piperazin-1-yl}pyrimidine] | ≤ 1000 |  |
| CC1CCCCN1c1nc(-c2ccc(F)c(F)c2)cc(N2CCN(c3ncccc3Cl)C[C@H]2C)n1 (stereo partly drawn) [Example 771, 4-[(2R)-4-(3-chloropyridin-2-yl)-2-methylpiperazin-1-yl]-6-(3,4-difluorophenyl)-2-(2-methylpiperidin-1-yl)pyrimidine] | ≤ 1000 |  |
